Measured values from patent EP2951180B1, “2,6,7,8 SUBSTITUTED PURINES AS HDM2 INHIBITORS” (Merck Sharp & Dohme Corp., priority 2013, dated 2014).
Like-named read-outs stand apart in the source and are kept apart here.

Target: T1, HDM2 (Homo sapiens, UniProt Q00987)
T1 construct: Thioredoxin (N); made in house; host or cells: E. coli strain BL21(DE3)Rosetta
Assay: HDM2 FRET assay (inhibition of binding of FITC labeled p53-pocket peptide to HDM2)
Conditions: for IC50: read-out: FRET IC50
Summary of the method: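 Signal is read as the 520/495 nm emission ratio and converted to percent inhibition; nonlinear sigmoidal regression yields IC50. The assay mixes HDM2 (0.5 nM), FITC-p53 peptide (3 nM) and Tb anti-His antibody (0.25 nM) at 0.1% DMSO.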

[1] = 0.5 nM HDM2 (residues 17 to 125), 3nM peptide, two hour incubation at room temperature

T1 sequence (Q00987 17-125): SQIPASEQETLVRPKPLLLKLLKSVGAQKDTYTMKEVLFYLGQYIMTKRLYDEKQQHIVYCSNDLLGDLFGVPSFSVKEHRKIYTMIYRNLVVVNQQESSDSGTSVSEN

Cc1cccc(-c2nc3nc(C(=O)O)nc(N(C)C4CCCC4)c3n2Cc2ccc(C(F)(F)F)cc2)c1 [Example 6.65, 6-[cyclopentyl(methyl)amino]-8-(3-methylphenyl)-7-[4-(trifluoromethyl)benzyl]-7H-purine-2-carboxylic acid]
inhibition at 1 µM (read-out: inh. at 1000 nM (FRET)): 35%

C[C@H]1COCCN1c1nc2nc(-c3noc(=O)[nH]3)nc(-c3cncc(Cl)c3)c2n1C[C@H]1CC[C@H](C)CC1 [Example 16.43, 3-{6-(5-chloropyridin-3-yl)-7-[(trans-4-methylcyclohexyl)methyl]-8-[(3S)-3-methylmorpholin-4-yl]-7H -purin-2-yl}-1,2,4-oxadiazol-5(2H)-one]
IC50 [1]: 239 nM

CC(C)(CO)Nc1nc2nc(-c3noc(=O)[nH]3)nc(-c3cccc(Cl)c3)c2n1C[C@H]1CC[C@H](C)CC1 [Example 16.41, 3-{6-(3-chlorophenyl)-8-[(2-hydroxy-1,1-dimethylethyl)amino] -7-[(trans-4-methylcyclohexyl)methyl]-7H-purin-2-yl}-1,2,4-oxadiazol-5(4H)-one]
IC50 [1]: 17.8 nM

Cc1cc(C)n(-c2nc3nc(C(=O)O)nc(N[C@H](C)C4CCC4)c3n2Cc2ccc(C(F)(F)F)cc2)n1 [Example 9.59, 6-{[(1R)-1-cyclobutylethyl]amino}-8-(3,5-dimethyl-1H-pyrazol-1-yl)-7-[4-(trifluoromethyl)benzyl]-7H-purine-2-carboxylic acid]
IC50 (Table 9): 292 nM

Cc1cccc(-c2nc3nc(C(=O)O)nc(N[C@H](C)C(C)(C)C)c3n2Cc2ccc(C(F)(F)F)cc2)c1 [Example 6.47, 8-(3-methylphenyl)-7-[4-(trifluoromethyl)benzyl]-6-{[(1R)-1,2,2-trimethylpropyl]amino}-7H-purine-2-carboxylic acid]
IC50 (Table 6): 448 nM

Cc1cccc(-c2nc3nc(C(=O)O)nc(N4CCC4C4CCC4)c3n2Cc2ccc(C(F)(F)F)cc2)c1 (stereo not shown) [Example 6.93, 6-(2-cyclobutylazetidin-1-yl)-8-(3-methylphenyl)-7-[4-(trifluoromethyl)benzyl]-7H-purine-2-carboxylic acid]
IC50 (Table 6): 806 nM

C[C@H]1CC[C@H](Cn2c(N3CCOC[C@H]3CF)nc3nc(-c4noc(=O)[nH]4)nc(-c4cccc(Cl)c4)c32)CC1 [Example 16.137, 3-{6-(3-chlorophenyl)-8-[(3S)-3-(fluoromethyl)morpholin-4-yl]-7-[(trans-4-methylcyclohexyl)methyl]-7H-purin-2-yl}-1,2,4-oxadiazol-5(4H)-one]
IC50 [1]: 11.9 nM

C[C@H]1CC[C@H](Cn2c(N3CCOC[C@H]3c3ccccc3)nc3nc(-c4noc(=O)[nH]4)nc(N4CC[C@@H]4C4CCC4)c32)CC1 [Example 11.9, 3-(6-((R)-2-Cyclobutylazetidin-1-yl)-7-((trans-4-methylcyclohexyl)methyl)-8-((R)-3-phenylmorpholino)-7H-purin-2-yl)-1,2,4-oxadiazol-5(4H)-one]
IC50 (Table 11): 27.3 nM

C[C@@H](Nc1nc(-c2noc(=O)[nH]2)nc2nc(-c3cc(C(C)(C)O)ccn3)n(C[C@H]3CC[C@H](C)CC3)c12)C1CCC1 [Example 15.23, 3-(6-{[(1R)-1-cyclobutylethyl]amino}-8-[4-(1-hydroxy-1-methylethyl)pyridin-2-yl]-7-[(trans-4-methylcyclohexyl)methyl]-7H-purin-2-yl)-1 ,2,4-oxadiazol-5(4H)-one]
IC50 [1]: 4.75 nM

C[C@@H](Nc1nc(-c2noc(=O)[nH]2)nc2nc(N3CCOC4CCCC43)n(C[C@H]3CC[C@H](C)CC3)c12)C1CCC1 (single isomer, unassigned) [Example 11.149]
IC50 (Table 11): 3.58 nM

C[C@@H](Nc1nc(-c2n[nH]c(=O)o2)nc2nc(N3CCOC4CCCC43)n(C[C@H]3CC[C@H](C)CC3)c12)C1CCC1 (single isomer, unassigned) [Example 11.140]
IC50 (Table 11): 9.87 nM

CC(Nc1nc2nc(-c3noc(=O)[nH]3)nc(N[C@H](C)C3CCC3)c2n1C[C@H]1CC[C@H](C)CC1)c1cscn1 (stereo partly drawn) [Example 11.88, 3-(6-{[(1R)-1-cyclobutylethyl]amino}-7-[(trans-4-methylcyclohexyl)methyl]-8-{[1-(1,3-thiazol-4-yl)ethyl]amino}-7H-purin-2-yl)-1,2,4-oxadiazol-5(2H)-one]
IC50 (Table 11): 3.83 nM

C[C@H]1CC[C@H](Cn2c(N3CCO[C@@H]4CCC[C@H]43)nc3nc(-c4n[nH]c(=O)o4)nc(-c4cncc(Cl)c4)c32)CC1 [Example 16.90, 5-{6-(5-chloropyridin-3-yl)-8-[(4aR,7aR)-hexahydrocyclopenta [b][1,4]oxazin-4(4aH)-yl]-7-[(trans-4-methylcyclohexyl)methyl]-7H-purin-2-yl}-1,3,4-oxadiazol-2(3H)-one]
IC50 [1]: 2.28 nM

C[C@@H]1OCCN(c2nc3nc(-c4n[nH]c(=O)o4)nc(N[C@H](C)C4CCC4)c3n2C[C@H]2CC[C@H](C)CC2)[C@@H]1c1ccccc1 [Example 11.164, 5-(6-{[(1R)-1-cyclobutylethyl]amino}-7-[(trans-4-methylcyclohexyl)methyl]-8-[(2S,3R)-2-methyl-3-phenylmorpholin-4-yl]-7H-purin-2-yl)-1,3,4-oxadiazol-2(3H)-one]
IC50 (Table 11): 31 nM

COCC1CCCCN1c1nc2nc(-c3noc(=O)[nH]3)nc(N[C@H](C)C3CCC3)c2n1C[C@H]1CC[C@H](C)CC1 (stereo partly drawn) [Example 11.39, 3-(6-{[(1R)-1-cyclobutylethyl]amino}-8-[2-(methoxymethyl)piperidin-1-yl]-7-[(trans-4-methylcyclohexyl)methyl]-7H-purin-2-yl)-1,2,4-oxadiazol-5(2H)-one]
IC50 (Table 11): 9.71 nM

C[C@@H](Nc1nc(-c2noc(=O)[nH]2)nc2nc(N3CCOC[C@H]3c3ccccc3)n(Cc3ccc(C(F)(F)F)cc3)c12)C1CCC1 [Example 9.57, 3-(6-{[(1R)-1-cyclobutylethyl]amino}-8-[(3R)-3-phenylmorpholin-4-yl]-7-[4-(trifluoromethyl)benzyl]-7H-purin-2-yl)-1,2,4-oxadiazol-5(4H)-one]
IC50 (Table 9): 1.72 nM

CC1CCCCN1c1nc2nc(-c3noc(=O)[nH]3)nc(N[C@H](C)C3CCC3)c2n1C[C@H]1CC[C@H](C)CC1 (stereo partly drawn) [Example 11.47, 3-[6-{[(1R)-1-cyclobutylethyl]amino}-7-[(trans-4-methylcyclohexyl)methyl]-8-(2-methylpiperidin-1-yl)-7H-purin-2-yl]-1,2,4-oxadiazol-5(4H)-one]
IC50 (Table 11): 7.27 nM

C[C@@H](Nc1nc(C(=O)O)nc2nc(C3CCCCC3c3ccccc3)n(Cc3ccc(C(F)(F)F)cc3)c12)C1CCC1 (single isomer, unassigned) [Example 21.1]
IC50 (Table 21): 10.2 nM

C[C@H]1CC[C@H](Cn2c(C3(c4ccccc4F)CC3)nc3nc(-c4noc(=O)[nH]4)nc(-c4cncc(Cl)c4)c32)CC1 [Example 23.100, 3-{6-(5-chloropyridin-3-yl)-8-[1-(2-fluorophenyl)cyclopropyl] -7-[(trans-4-methylcyclohexyl)methyl] -7H-purin-2-yl}-1,2,4-oxadiazol-5(4H)-one]
IC50 (Table 23): 5.94 nM

C[C@H]1CC[C@H](Cn2c(N3CCC4OCCC43)nc3nc(-c4noc(=O)[nH]4)nc(-c4cccc(Cl)c4)c32)CC1 (relative stereo) [Example 16.150, 3-{6-(3-chlorophenyl)-8-(hexahydro-4H-furo[3,2-b]pyrrol-4-yl)-7-[(trans-4-methylcyclohexyl)methyl]-7H-purin-2-yl}-1,2,4-oxadiazol-5(4H)-one]
IC50 [1]: 45 nM

C[C@@H](Nc1nc(-c2noc(=O)[nH]2)nc2nc(C(C)(O)c3ccccc3)n(C[C@H]3CC[C@H](C)CC3)c12)C1CCC1 (single isomer, unassigned) [Example 22.23]
IC50 (Table 22): 6.38 nM

C[C@@H](Nc1nc(C(=O)O)nc2nc(C3COCC3c3ccccc3)n(Cc3ccc(C(F)(F)F)cc3)c12)C1CCC1 (single isomer, unassigned) [Example 21.8]
IC50 (Table 21): 3.8 nM

C[C@@H](Nc1nc(-c2noc(=O)[nH]2)nc2nc(N3CCO[C@H](C)[C@H]3c3ccccc3)n(C[C@H]3CC[C@H](C)CC3)c12)C1CCC1 [Example 11.165, 3-(6-{[(1R)-1-cyclobutylethyl]amino}-7-[(trans-4-methylcyclohexyl)methyl]-8-[(2R,3R)-2-methyl-3-phenylmorpholin-4-yl]-7H-purin-2-yl)-1,2,4-oxadiazol-5(4H)-one]
IC50 (Table 11): 0.767 nM

C[C@@H](Nc1nc(-c2noc(=O)[nH]2)nc2nc(N3CC(C)(O)C3)n(C[C@H]3CC[C@H](C)CC3)c12)C1CCC1 [Example 11.103, 3-(6-{[(1R)-1-cyclobutylethyl]amino}-8-(3-hydroxy-3-methylazetidin-1-yl)-7-[(trans-4-methylcyclohexyl)methyl]-7H-purin-2-yl)-1,2,4-oxadiazol-5(2H)-one]
IC50 (Table 11): 36.2 nM

CC(C)CC1COCCN1c1nc2nc(C(=O)O)nc(N[C@H](C)C3CCC3)c2n1Cc1ccc(C(F)(F)F)cc1 (stereo partly drawn) [Example 9.66, 6-{[(1R)-1-cyclobutylethyl]amino}-8-[3-(2-methylpropyl)morpholin-4-yl]-7-[4-(trifluoromethyl)benzyl]-7H-purine-2-carboxylic acid]
IC50 (Table 9): 6.07 nM

C[C@@H](Nc1nc(-c2noc(=O)[nH]2)nc2nc(N3CCCCC3c3cccnc3)n(C[C@H]3CC[C@H](C)CC3)c12)C1CCC1 (single isomer, unassigned) [Example 11.50]
IC50 (Table 11): 14.3 nM

CC(C)c1ccnc(-c2nc3nc(-c4noc(=O)[nH]4)nc(-c4cccc(Cl)c4)c3n2C[C@H]2CC[C@H](C)CC2)c1 [Example 16.16, 3-{6-(3-chlorophenyl)-7-[(trans-4-methylcyclohexyl)methyl]-8-[4-(1-methylethyl)pyridin-2-yl]-7H-purin-2-yl}-1,2,4-oxadiazol-5(4H)-one]
IC50 [1]: 11.4 nM

C[C@@H](Nc1nc(-c2noc(=O)[nH]2)nc2nc(C3OCc4ccccc43)n(C[C@H]3CC[C@H](C)CC3)c12)C1CCC1 (stereo partly drawn) [Example 22.80, 3-(6-{[(1R)-1-cyclobutylethyl]amino}-8-(1,3-dihydro-2-benzofuran-1-yl)-7-[(trans-4-methylcyclohexyl)methyl]-7H-purin-2-yl)-1,2,4-oxadiazol-5(4H)-one]
IC50 (Table 22): 2.47 nM
